Results taken from the supplement of paper PMC5579334.

Assays:
HS-Sch-2 [1] = assay: % inhibition of CellTiter-Glo viability at highest tested concentration (72 h), relative to DMSO and benzethonium chloride controls; higher = more inhibition
Summary of the method: (§1)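 MPNST cell lines and primary human Schwann cells were seeded at 750–1000 cells per well into 384-well plates preprinted with each compound at five concentrations in 10-fold steps, then incubated 72 h at 37 °C, 5% CO2. CellTiter-Glo ATP luminescence gave viability, scaled between vehicle and positive-control wells, with duplicates averaged where present. Curves were fitted with a four-parameter logistic model. Percent inhibition refers to the top concentration, while drug sensitivity score and relative IC50, censored at the top concentration, come from these fits.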

YST-1 [2] = assay: as above
Summary of the method: as §1

HS-PSS [3] = assay: as above
Summary of the method: as §1

HS-Sch-2 [4] = assay: drug sensitivity score (DSS, CellTiter-Glo viability, 72 h) (DSS (dimensionless)); higher = more sensitive; extreme values may be limits of the assay
Summary of the method: as §1

YST-1 [5] = assay: as above
Summary of the method: as §1

HS-PSS [6] = assay: as above
Summary of the method: as §1

HS-PSS [7] = assay: drug sensitivity score (DSS, CellTox-Green cytotoxicity, 72 h) (DSS (dimensionless)); higher = more cytotoxic; extreme values may be limits of the assay
Summary of the method: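 For 72 h at 37 °C, MPNST cell lines and primary human Schwann cells were exposed in 384-well plates to five 10-fold compound dilutions. CellTox-Green, added before seeding at a final 1:1000 dilution, gave fluorescence from DNA released by disrupted cells. Signals were scaled to vehicle and positive-control wells, cultures failing plate quality control were left out, and four-parameter logistic fits were applied. Relative IC50 and drug sensitivity score were derived from the fits, with IC50 censored at the top concentration.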

| Structure (SMILES) | % inhibition (HS-Sch-2 [1]) | % inhibition (YST-1 [2]) | % inhibition (HS-PSS [3]) | drug sensitivity score (HS-Sch-2 [4]) | drug sensitivity score (YST-1 [5]) | drug sensitivity score (HS-PSS [6]) | drug sensitivity score (HS-PSS [7]) |
| --- | --- | --- | --- | --- | --- | --- | --- |
| C=CC(=O)Nc1cccc(Nc2nc(Nc3ccc(N4CCN(C(C)=O)CC4)cc3OC)ncc2C(F)(F)F)c1 [Rociletinib] (max concentration tested 10000 nM) | 80.9% | 95.2% | 86.4% | 4.99 | 8.73 | 4.91 | 3.25 |
| O=C(Nc1nc2cccc(-c3ccc(CN4CCS(=O)(=O)CC4)cc3)n2n1)C1CC1 [Filgotinib] (max concentration tested 10000 nM) | 35.7% | 45.2% | 14.3% | 2.01 | 1.97 | 0.09 | 0 |
| O=C(NC1CCNCC1)c1n[nH]cc1NC(=O)c1c(Cl)cccc1Cl [AT7519] (max concentration tested 10000 nM) | 99.7% | 98.7% | 73.5% | 17.6 | 26 | 15.3 | 1.85 |
| C/C=C1\NC(=O)[C@H]2CSSCC/C=C/[C@H](CC(=O)N[C@H](C(C)C)C(=O)N2)OC(=O)[C@H](C(C)C)NC1=O [Romidepsin] (max concentration tested 1000 nM) | 100% | 98.5% | 95.4% | 33 | 37.8 | 5.59 | 3.93 |
| FC(F)(F)c1ccc(CNc2ccc(Cc3c[nH]c4ncc(Cl)cc34)cn2)cn1 [Pexidartinib] (max concentration tested 10000 nM) | 18.9% | 17.3% | 25.9% | 0.57 | 0.84 | 1.79 | 0 |
| CC(C)NC(=O)COc1cccc(-c2nc(Nc3ccc4[nH]ncc4c3)c3ccccc3n2)c1 [SLx-2119] (max concentration tested 5000 nM) | 29.4% | 83.7% | 48.7% | 2.63 | 13.6 | 3.67 | 0 |
| COc1ccc(COc2cc3oc(=O)c4cc(C(C)O)ccc4c3cc2OC)cc1 (configuration not stated) [Palomid-529] (max concentration tested 10000 nM) | -4.31% | 10.2% | 2.33% | 0 | 0 | 0 | 0 |
| NC1(C(=O)N[C@@H](CCO)c2ccc(Cl)cc2)CCN(c2ncnc3[nH]ccc23)CC1 [AZD-5363] (max concentration tested 10000 nM) | 66.5% | 56.9% | 20.3% | 3.33 | 4.35 | 0.45 | 0 |
| Cc1nn(C)c(COc2ccc(N3CCN(S(=O)(=O)N(C)C)CC3)cc2)c1-c1cccc2c(CCCOc3cccc4ccccc34)c(C(=O)O)n(CCN3CCOCC3)c12 (max concentration tested 50000 nM) | 101% | 101% | 90.5% | 5.73 | 6.72 | 4.52 | 1.47 |
| Cn1ncc(Cl)c1-c1cc(C(=O)N[C@H](CN)Cc2ccc(F)c(F)c2)oc1Cl [Uprosertib] (max concentration tested 10000 nM) | 6.41% | 21.9% | 9.97% | 0 | 3.04 | 0 | 0 |
| CNC(=O)c1ccc(C)c(-n2c(C)cc(OCc3ccc(F)cc3F)c(Br)c2=O)c1 (max concentration tested 1000 nM) | 4% | 38.4% | 8.35% | 0 | 5.16 | 0 | 0 |
| N.N.[Cl][Pt][Cl] [Cisplatin] (max concentration tested 100000 nM) | 100% | 95.9% | 86.4% | 23.1 | 13.8 | 13.1 | 9.13 |
| CCn1c(-c2nonc2N)nc2c(C#CC(C)(C)O)ncc(OC[C@H]3CCCNC3)c21 (max concentration tested 10000 nM) | 39% | -24.9% | 3.9% | 3.35 | 0 | 0 | 0 |
| COc1ccc(Cn2ccc3ccc(C(=O)NO)cc32)cc1 (max concentration tested 10000 nM) | 46.8% | 56.2% | 18.1% | 2.02 | 5.14 | 0.33 | 0 |
| NC[C@@](O)(c1ccc(Cl)cc1)c1ccc(-c2cn[nH]c2)cc1 (max concentration tested 10000 nM) | 91.8% | 73.8% | 97.9% | 8.76 | 4.33 | 7.75 | 6.26 |
| CNC(=O)c1ccc(-c2cnc3ncc(Cc4ccc5ncccc5c4)n3n2)cc1F [NVP-INC280] (max concentration tested 1000 nM) | 6.7% | 12.3% | 7.48% | 1.29 | 0.19 | 0 | 0 |
